Experimental data as given in the supplement of paper PMC10307832.

Tests used:
Experiment in all cases: relative viability (nuclei count vs DMSO), 5 days (fraction); higher = more cells survive
Metformin + Luminespib = compound: CN(C)C(=N)NC(=N)N [Metformin] + CCNC(=O)c1noc(-c2cc(C(C)C)c(O)cc2O)c1-c1ccc(CN2CCOCC2)cc1 [Luminespib] (partner 0.01 µM)
Method in brief: (§1)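 Relative viability is defined as nuclei in treated wells over nuclei in vehicle wells. Duplicate plates were run and medians reported. Lung cancer cell lines in 1536-well plates were dosed by pin tool one day after seeding, with one drug or with a fixed anchor-drug dose plus five library-drug doses (not always all listed) in √10 steps, and nuclei were counted after 5 days.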

Metformin + Phenformin = compound: CN(C)C(=N)NC(=N)N [Metformin] + N=C(N)NC(=N)NCCc1ccccc1 [Phenformin] (partner 250 µM)
Method in brief: as §1

Metformin + Decitabine = compound: CN(C)C(=N)NC(=N)N [Metformin] + Nc1ncn([C@H]2C[C@H](O)[C@@H](CO)O2)c(=O)n1 [Decitabine] (partner 2 µM)
Method in brief: as §1

Apatinib + Linsitinib = compound: N#CC1(c2ccc(NC(=O)c3cccnc3NCc3ccncc3)cc2)CCCC1 [Apatinib] + C[C@]1(O)C[C@@H](c2nc(-c3ccc4ccc(-c5ccccc5)nc4c3)c3c(N)nccn32)C1 [Linsitinib] (partner 1 µM)
Method in brief: as §1

Row | Cell Line | relative viability (Metformin + Luminespib; first compound 31.62 µM) | relative viability (Metformin + Luminespib; first compound 100 µM) | relative viability (Metformin + Luminespib; first compound 316.23 µM) | relative viability (Metformin + Luminespib; first compound 1000 µM) | relative viability (Metformin + Phenformin; first compound 31.62 µM) | relative viability (Metformin + Phenformin; first compound 100 µM) | relative viability (Metformin + Phenformin; first compound 316.23 µM) | relative viability (Metformin + Phenformin; first compound 1000 µM) | relative viability (Metformin + Decitabine; first compound 31.62 µM) | relative viability (Metformin + Decitabine; first compound 100 µM) | relative viability (Metformin + Decitabine; first compound 316.23 µM) | relative viability (Metformin + Decitabine; first compound 1000 µM) | relative viability (Apatinib + Linsitinib; first compound 0.08 µM) | relative viability (Apatinib + Linsitinib; first compound 0.253 µM) | relative viability (Apatinib + Linsitinib; first compound 0.8 µM) | relative viability (Apatinib + Linsitinib; first compound 2.53 µM) | relative viability (Apatinib + Linsitinib; first compound 8 µM) | relative viability (Metformin + Luminespib; first compound 10 µM) | relative viability (Metformin + Phenformin; first compound 10 µM) | relative viability (Metformin + Decitabine; first compound 10 µM)
1 | NCI-H441 | 0.241 | 0.336 | 0.28 | 0.373 | 0.707 | 0.706 | 0.586 | 0.803 | 0.236 | 0.262 | 0.217 | 0.262 | 0.596 | 0.61 | 0.628 | 0.422 | 0.303 | – | – | –
2 | ABC-1 | 0.694 | 0.883 | 0.306 | 0.371 | 0.244 | 0.251 | 0.202 | 0.19 | 1.12 | 1.2 | 1.54 | 0.548 | – | 0.861 | 0.869 | 0.839 | 0.882 | 0.481 | 0.292 | –
3 | NCI-H1651 | 1.3 | 1.06 | 0.828 | 0.989 | 0.312 | 0.371 | 0.327 | 0.373 | 0.687 | 0.572 | 0.476 | 0.755 | 1.13 | 1.13 | 0.895 | 0.91 | 0.784 | 1.19 | 0.42 | 0.485
4 | NCI-H838 | 0.289 | 0.291 | 0.237 | 0.251 | 0.671 | 0.661 | 0.667 | 0.749 | 0.465 | 0.482 | 0.396 | 0.459 | 1.14 | 1.18 | 0.962 | 0.985 | 1.04 | 0.258 | 0.709 | 0.478
5 | NCI-H1755 | 0.565 | 0.475 | 0.419 | 0.418 | 0.626 | 0.639 | 0.613 | 0.632 | 0.535 | 0.643 | 0.644 | 0.635 | 0.976 | 0.97 | 0.964 | 0.977 | 0.709 | 0.504 | 0.543 | 0.685
6 | NCI-H1734 | 0.2 | 0.206 | 0.181 | 0.19 | 0.447 | 0.405 | 0.367 | 0.379 | 0.425 | 0.435 | 0.442 | 0.499 | 0.969 | 1.04 | 0.897 | 0.738 | 0.809 | 0.145 | 0.431 | 0.502
7 | NCI-H2009 | 1.09 | 1.08 | 1.02 | 0.93 | 0.499 | 0.565 | 0.412 | 0.425 | 0.366 | 0.351 | 0.401 | 0.424 | 1.26 | 1.16 | 1.17 | 1.08 | 0.799 | 1.07 | 0.504 | 0.367
8 | SW 1573 | 0.255 | 0.51 | 0.157 | 0.153 | 0.387 | 0.492 | 0.414 | 0.364 | 0.637 | 0.44 | 0.431 | 0.421 | 0.898 | 0.784 | 0.979 | 0.885 | 0.854 | 0.266 | 0.422 | 0.508
9 | HARA | 0.897 | 0.895 | 0.775 | 0.776 | 0.459 | 0.518 | 0.493 | 0.591 | 0.498 | 0.581 | 0.621 | 0.68 | 1.04 | 0.983 | 0.994 | 0.995 | 0.882 | – | – | 0.722
10 | PC-3 [JPC-3] | 0.68 | 0.73 | 0.663 | 0.74 | 0.46 | 0.462 | 0.45 | 0.478 | 0.848 | – | 0.841 | 0.732 | 0.98 | 0.961 | 0.885 | 0.797 | 0.894 | 0.686 | 0.437 | 0.786
11 | NCI-H1666 | 1.11 | 1.16 | 1.06 | 1.16 | 0.575 | 0.569 | 0.499 | 0.58 | 0.713 | 0.649 | 0.619 | 0.823 | 0.861 | 0.99 | 0.92 | 0.917 | 0.724 | 1.06 | – | 0.66
12 | NCI-H520 | 0.224 | 0.211 | 0.223 | 0.23 | 0.892 | 0.603 | 0.658 | 0.78 | 0.447 | 0.461 | 0.423 | 0.485 | 1.12 | 0.948 | 0.842 | 0.876 | 0.878 | 0.265 | 1.08 | 0.463
13 | NCI-H2023 | 0.725 | 0.711 | 0.67 | 0.676 | 0.376 | 0.408 | 0.393 | 0.354 | 0.223 | 0.203 | 0.207 | 0.186 | 0.816 | 0.886 | 0.615 | 0.683 | 0.607 | 0.649 | 0.396 | 0.224
14 | LXF-289 | 0.683 | 0.724 | 0.625 | 0.621 | 0.525 | 0.537 | 0.509 | 0.51 | 0.367 | 0.345 | 0.312 | 0.378 | 0.974 | 0.964 | 0.96 | 0.941 | 0.896 | 0.693 | 0.48 | 0.312
15 | EPLC-272H | 0.335 | 0.27 | 0.25 | 0.413 | 0.369 | 0.381 | 0.262 | 0.304 | 0.415 | 0.426 | 0.38 | 0.507 | 1.19 | 1.07 | 1.23 | 1.23 | 1.12 | 0.398 | 0.333 | 0.383
16 | NCI-H2087 | 0.293 | 0.225 | 0.223 | 0.157 | 0.435 | 0.507 | 0.398 | 0.386 | 0.231 | 0.294 | 0.294 | 0.3 | 1.07 | 0.925 | 0.907 | 0.924 | 0.716 | – | – | 0.251
17 | NCI-H647 | 0.154 | 0.278 | 0.16 | 0.113 | 0.58 | 0.62 | 0.521 | 0.653 | 0.366 | 0.381 | – | 0.434 | 1.32 | 1.18 | 1.01 | 1.04 | 1.02 | 0.187 | 0.614 | 0.316
